Target: T1, EGFR (Homo sapiens, UniProt P00533)
T1 construct: endogenous in cells; host or cells: A431 cells (lysate, captured with SUMO1 anti-EGFR antibody)
Assay: Biochemical EGFR Assay
Parameters: concentration or dose not given beside the values
Details: protocol P.167
Method in brief: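 EGFR from A431 lysate was captured on anti-EGFR-coated wells and preincubated 30 min with compound (diluted 1:10 in TBS) at room temperature. After ATP/MnCl2 phosphorylation for 5 min, the reaction was stopped with EDTA. Phosphotyrosine was detected by ELISA (anti-phosphotyrosine, peroxidase conjugate, ABTS) at 410 nm.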

T1 sequence (P00533 25-1210): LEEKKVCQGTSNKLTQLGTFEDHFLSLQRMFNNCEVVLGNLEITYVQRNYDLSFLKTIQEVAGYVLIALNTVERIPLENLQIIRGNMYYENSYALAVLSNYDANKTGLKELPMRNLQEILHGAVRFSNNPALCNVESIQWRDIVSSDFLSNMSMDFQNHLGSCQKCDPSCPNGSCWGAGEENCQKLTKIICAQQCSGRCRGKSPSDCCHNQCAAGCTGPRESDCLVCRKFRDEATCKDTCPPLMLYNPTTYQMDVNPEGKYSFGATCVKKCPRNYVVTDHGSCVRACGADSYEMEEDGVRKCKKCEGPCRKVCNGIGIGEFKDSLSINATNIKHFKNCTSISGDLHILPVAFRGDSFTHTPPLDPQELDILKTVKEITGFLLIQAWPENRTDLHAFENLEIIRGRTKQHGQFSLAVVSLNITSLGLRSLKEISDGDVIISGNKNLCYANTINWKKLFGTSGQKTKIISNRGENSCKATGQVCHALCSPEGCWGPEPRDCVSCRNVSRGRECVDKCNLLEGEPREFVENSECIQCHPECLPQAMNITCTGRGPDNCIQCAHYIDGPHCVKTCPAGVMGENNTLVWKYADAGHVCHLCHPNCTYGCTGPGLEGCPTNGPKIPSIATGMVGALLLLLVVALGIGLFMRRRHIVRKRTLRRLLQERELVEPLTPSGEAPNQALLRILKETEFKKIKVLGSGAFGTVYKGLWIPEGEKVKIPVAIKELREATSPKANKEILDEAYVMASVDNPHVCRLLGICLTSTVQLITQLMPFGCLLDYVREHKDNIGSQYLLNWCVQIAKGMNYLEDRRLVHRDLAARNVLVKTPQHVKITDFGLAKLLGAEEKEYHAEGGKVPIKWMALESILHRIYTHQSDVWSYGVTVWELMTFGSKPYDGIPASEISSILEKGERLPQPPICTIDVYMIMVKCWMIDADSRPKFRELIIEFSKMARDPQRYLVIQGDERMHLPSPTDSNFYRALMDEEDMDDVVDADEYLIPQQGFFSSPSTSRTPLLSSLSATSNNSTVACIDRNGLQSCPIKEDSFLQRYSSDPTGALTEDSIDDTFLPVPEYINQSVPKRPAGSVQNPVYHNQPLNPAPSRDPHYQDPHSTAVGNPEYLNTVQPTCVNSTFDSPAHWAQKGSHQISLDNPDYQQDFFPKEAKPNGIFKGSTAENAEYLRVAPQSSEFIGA

Going from O=C1Nc2ccc(S(=O)(=O)Nc3ccc(C(F)(F)F)cc3)cc2C1=Cc1ccc2ccccc2c1 [10737/E08] to O=C1Nc2ccc(S(=O)(=O)Nc3ccc(C(F)(F)F)cc3)cc2C1=Cc1ccc(Oc2ccccc2)cc1 [10737/E09], the “Biochem EGFR % Inhibition (P.167)” value rises from −7.8% to −0.7%.

Compared with Cc1c(Br)cc(Br)c2c1C(=Cc1cccc(F)c1)C(=O)N2 [10736/H07], COc1cccc(C=C2C(=O)Nc3c(Br)cc(Br)c(C)c32)c1 [10736/H10] is lower in “Biochem EGFR % Inhibition (P.167)” value: 52.2% for the first, 45.6% for the second.

First: Cc1c(Br)ccc2c1C(=Cc1cc(F)ccc1F)C(=O)N2 [10737/C04]
Second: Cc1c(Br)ccc2c1C(=Cc1cccc(F)c1F)C(=O)N2 [10737/C05]
The “Biochem EGFR % Inhibition (P.167)” value of the first is higher: 14.4% for the first, 13.3% for the second.

First: Cc1ccc(C)c(C=C2C(=O)Nc3ccc(S(=O)(=O)N4CCOCC4)cc32)c1 [10737/F07]
Second: Cc1ccc(C=C2C(=O)Nc3ccc(S(=O)(=O)N4CCOCC4)cc32)c(C)c1 [10737/F03]
The “Biochem EGFR % Inhibition (P.167)” value of the first is lower: −25.5% for the first, −3.1% for the second.

First: CNS(=O)(=O)c1ccc2c(c1)C(=Cc1cc(C)ccc1C)C(=O)N2 [10737/D07]
Second: CNS(=O)(=O)c1ccc2c(c1)C(=Cc1ccc(C)cc1C)C(=O)N2 [10737/D03]
The “Biochem EGFR % Inhibition (P.167)” value of the first is higher: 16.1% for the first, −21.5% for the second.

First: CNS(=O)(=O)c1ccc2c(c1)C(=Cc1cccc(F)c1F)C(=O)N2 [10737/D05]
Second: CNS(=O)(=O)c1ccc2c(c1)C(=Cc1cc(F)ccc1F)C(=O)N2 [10737/D04]
The “Biochem EGFR % Inhibition (P.167)” value of the first is higher: 17.9% for the first, −27.7% for the second.

First: O=C1Nc2c(Br)cc(Br)cc2C1=Cc1ccc2ccccc2c1 [10737/A08]
Second: O=C1Nc2c(Br)cc(Br)cc2C1=Cc1ccc(Oc2ccccc2)cc1 [10737/A09]
The “Biochem EGFR % Inhibition (P.167)” value of the first is lower: 35.8% for the first, 36.0% for the second.

Compared with O=C1Nc2ccc(CCCl)cc2C1=Cc1ccc(Oc2ccccc2)cc1 [10737/G09], CNS(=O)(=O)c1ccc2c(c1)C(=Cc1ccc(Oc3ccccc3)cc1)C(=O)N2 [10737/D09] is lower in “Biochem EGFR % Inhibition (P.167)” value: 23.6% for the first, 13.7% for the second.

Going from Cc1ccc(C)c(C=C2C(=O)Nc3ccc(I)cc32)c1 [10737/B07] to Cc1ccc(C=C2C(=O)Nc3ccc(I)cc32)c(C)c1 [10737/B03], the “Biochem EGFR % Inhibition (P.167)” value falls from 18.1% to −34.9%.

Going from Cc1c(Br)cc(Br)c2c1C(=Cc1cccc(F)c1F)C(=O)N2 [10737/H05] to Cc1c(Br)cc(Br)c2c1C(=Cc1ccccc1F)C(=O)N2 [10736/H08], the “Biochem EGFR % Inhibition (P.167)” value falls from −17.4% to −20.2%.

Going from Cc1c(Br)ccc2c1C(=Cc1cccc(Oc3ccc(C(C)(C)C)cc3)c1)C(=O)N2 [10737/C10] to CC(C)(C)c1ccc(Oc2cccc(C=C3C(=O)Nc4ccc(I)cc43)c2)cc1 [10737/B10], the “Biochem EGFR % Inhibition (P.167)” value rises from −15.6% to −7.3%.

First: CNS(=O)(=O)c1ccc2c(c1)C(=Cc1cccc(Oc3ccc(C(C)(C)C)cc3)c1)C(=O)N2 [10737/D10]
Second: CC(C)(C)c1ccc(Oc2cccc(C=C3C(=O)Nc4ccc(S(=O)(=O)N5CCOCC5)cc43)c2)cc1 [10737/F10]
The “Biochem EGFR % Inhibition (P.167)” value of the first is lower: −15.0% for the first, 14.6% for the second.

Compared with CCOc1ccc(C=C2C(=O)Nc3ccc(I)cc32)cc1 [10737/B02], CCOc1ccc(C=C2C(=O)Nc3ccc(CCCl)cc32)cc1 [10737/G02] is higher in “Biochem EGFR % Inhibition (P.167)” value: −34.0% for the first, 12.4% for the second.

Compared with CNS(=O)(=O)c1ccc2c(c1)C(=Cc1ccc(OC)c(F)c1)C(=O)N2 [10737/D06], COc1ccc(C=C2C(=O)Nc3ccc(I)cc32)cc1F [10737/B06] is lower in “Biochem EGFR % Inhibition (P.167)” value: 33.8% for the first, 22.5% for the second.

Compared with CNS(=O)(=O)c1ccc2c(c1)C(=Cc1ccc3ccccc3c1)C(=O)N2 [10737/D08], O=C1Nc2ccc(I)cc2C1=Cc1ccc2ccccc2c1 [10737/B08] is higher in “Biochem EGFR % Inhibition (P.167)” value: 5.6% for the first, 15.4% for the second.

Compared with O=C1Nc2ccc(CCCl)cc2C1=Cc1cccc(F)c1F [10737/G05], O=C1Nc2ccc(CCCl)cc2C1=Cc1cc(F)ccc1F [10737/G04] is higher in “Biochem EGFR % Inhibition (P.167)” value: −41.4% for the first, −19.3% for the second.

Going from CCOc1ccc(C=C2C(=O)Nc3ccc(S(=O)(=O)NC)cc32)cc1 [10737/D02] to CCOc1ccc(C=C2C(=O)Nc3ccc(S(=O)(=O)N4CCOCC4)cc32)cc1 [10737/F02], the “Biochem EGFR % Inhibition (P.167)” value rises from −14.7% to 21.4%.

First: Cc1ccc(C)c(C=C2C(=O)Nc3ccc(S(=O)(=O)Nc4ccc(C(F)(F)F)cc4)cc32)c1 [10737/E07]
Second: Cc1ccc(C=C2C(=O)Nc3ccc(S(=O)(=O)Nc4ccc(C(F)(F)F)cc4)cc32)c(C)c1 [10737/E03]
The “Biochem EGFR % Inhibition (P.167)” value of the first is lower: −12.3% for the first, −4.5% for the second.

Going from CCOc1ccc(C=C2C(=O)Nc3c(Br)cc(Br)c(C)c32)cc1 [10737/H02] to CCc1ccc(C=C2C(=O)Nc3c(Br)cc(Br)c(C)c32)cc1 [10736/H09], the “Biochem EGFR % Inhibition (P.167)” value rises from −17.2% to 35.7%.

Compared with O=C1Nc2ccc(S(=O)(=O)N3CCOCC3)cc2C1=Cc1cccc(Oc2cccc(C(F)(F)F)c2)c1 [10737/F11], CNS(=O)(=O)c1ccc2c(c1)C(=Cc1cccc(Oc3cccc(C(F)(F)F)c3)c1)C(=O)N2 [10737/D11] is lower in “Biochem EGFR % Inhibition (P.167)” value: −0.7% for the first, −2.3% for the second.

First: Cc1ccc(C=C2C(=O)Nc3c(Br)cc(Br)cc32)c(C)c1 [10737/A03]
Second: Cc1ccc(C)c(C=C2C(=O)Nc3c(Br)cc(Br)cc32)c1 [10737/A07]
The “Biochem EGFR % Inhibition (P.167)” value of the first is lower: 12.8% for the first, 25.3% for the second.

First: Cc1c(Br)cc(Br)c2c1C(=Cc1ccccc1Cl)C(=O)N2 [10736/H11]
Second: Cc1ccc(C=C2C(=O)Nc3c(Br)cc(Br)c(C)c32)c(C)c1 [10737/H03]
The “Biochem EGFR % Inhibition (P.167)” value of the first is higher: 11.1% for the first, −22.6% for the second.

Going from Cc1ccc(C=C2C(=O)Nc3ccc(Br)c(C)c32)c(C)c1 [10737/C03] to Cc1ccc(C)c(C=C2C(=O)Nc3ccc(Br)c(C)c32)c1 [10737/C07], the “Biochem EGFR % Inhibition (P.167)” value rises from −0.7% to 27.9%.

Compared with Cc1c(Br)ccc2c1C(=Cc1ccc(Oc3ccccc3)cc1)C(=O)N2 [10737/C09], Cc1c(Br)ccc2c1C(=Cc1ccc3ccccc3c1)C(=O)N2 [10737/C08] is higher in “Biochem EGFR % Inhibition (P.167)” value: 13.0% for the first, 16.3% for the second.

Going from CC(C)(C)c1ccc(Oc2cccc(C=C3C(=O)Nc4c(Br)cc(Br)cc43)c2)cc1 [10737/A10] to O=C1Nc2c(Br)cc(Br)cc2C1=Cc1cccc(Oc2cccc(C(F)(F)F)c2)c1 [10737/A11], the “Biochem EGFR % Inhibition (P.167)” value falls from 10.9% to 10.8%.

Compared with O=C1Nc2ccc(CCCl)cc2C1=Cc1cccc(Oc2cccc(C(F)(F)F)c2)c1 [10737/G11], O=C1Nc2ccc(I)cc2C1=Cc1cccc(Oc2cccc(C(F)(F)F)c2)c1 [10737/B11] is lower in “Biochem EGFR % Inhibition (P.167)” value: 2.8% for the first, −9.9% for the second.

Compared with O=C1Nc2ccc(S(=O)(=O)N3CCOCC3)cc2C1=Cc1cc(F)ccc1F [10737/F04], O=C1Nc2ccc(S(=O)(=O)N3CCOCC3)cc2C1=Cc1cccc(F)c1F [10737/F05] is lower in “Biochem EGFR % Inhibition (P.167)” value: −23.3% for the first, −24.0% for the second.

Compared with COc1ccc(C=C2C(=O)Nc3c(Br)cc(Br)c(C)c32)cc1F [10737/H06], COc1ccc(C=C2C(=O)Nc3ccc(Br)c(C)c32)cc1F [10737/C06] is higher in “Biochem EGFR % Inhibition (P.167)” value: −31.0% for the first, 29.0% for the second.

Compared with Cc1ccc(C)c(C=C2C(=O)Nc3ccc(CCCl)cc32)c1 [10737/G07], Cc1ccc(C=C2C(=O)Nc3ccc(CCCl)cc32)c(C)c1 [10737/G03] is higher in “Biochem EGFR % Inhibition (P.167)” value: −25.0% for the first, −0.5% for the second.

Going from O=C1Nc2ccc(S(=O)(=O)Nc3ccc(C(F)(F)F)cc3)cc2C1=Cc1cc(F)ccc1F [10737/E04] to O=C1Nc2ccc(S(=O)(=O)Nc3ccc(C(F)(F)F)cc3)cc2C1=Cc1cccc(F)c1F [10737/E05], the “Biochem EGFR % Inhibition (P.167)” value falls from 15.4% to −8.6%.

Going from COc1ccc(C=C2C(=O)Nc3ccc(S(=O)(=O)N4CCOCC4)cc32)cc1F [10737/F06] to O=C1Nc2ccc(S(=O)(=O)N3CCOCC3)cc2C1=Cc1ccc2ccccc2c1 [10737/F08], the “Biochem EGFR % Inhibition (P.167)” value rises from −13.7% to 28.3%.

Compared with CC(C)(C)c1ccc(Oc2cccc(C=C3C(=O)Nc4ccc(CCCl)cc43)c2)cc1 [10737/G10], O=C1Nc2ccc(CCCl)cc2C1=Cc1ccc2ccccc2c1 [10737/G08] is higher in “Biochem EGFR % Inhibition (P.167)” value: 17.2% for the first, 30.8% for the second.

Compared with COc1ccc(C=C2C(=O)Nc3ccc(CCCl)cc32)cc1F [10737/G06], COc1ccc(C=C2C(=O)Nc3c(Br)cc(Br)cc32)cc1F [10737/A06] is higher in “Biochem EGFR % Inhibition (P.167)” value: −43.4% for the first, 37.3% for the second.

Compared with CC(C)(C)c1ccc(Oc2cccc(C=C3C(=O)Nc4ccc(S(=O)(=O)Nc5ccc(C(F)(F)F)cc5)cc43)c2)cc1 [10737/E10], CCOc1ccc(C=C2C(=O)Nc3ccc(S(=O)(=O)Nc4ccc(C(F)(F)F)cc4)cc32)cc1 [10737/E02] is higher in “Biochem EGFR % Inhibition (P.167)” value: −4.2% for the first, 6.7% for the second.

First: O=C1Nc2ccc(I)cc2C1=Cc1cc(F)ccc1F [10737/B04]
Second: O=C1Nc2ccc(I)cc2C1=Cc1cccc(F)c1F [10737/B05]
The “Biochem EGFR % Inhibition (P.167)” value of the first is lower: 7.1% for the first, 17.4% for the second.

Going from Cc1c(Br)ccc2c1C(=Cc1cccc(Oc3cccc(C(F)(F)F)c3)c1)C(=O)N2 [10737/C11] to CCOc1ccc(C=C2C(=O)Nc3ccc(Br)c(C)c32)cc1 [10737/C02], the “Biochem EGFR % Inhibition (P.167)” value falls from −5.6% to −22.0%.

Compared with COc1ccc(C=C2C(=O)Nc3ccc(S(=O)(=O)Nc4ccc(C(F)(F)F)cc4)cc32)cc1F [10737/E06], O=C1Nc2ccc(S(=O)(=O)N3CCOCC3)cc2C1=Cc1ccc(Oc2ccccc2)cc1 [10737/F09] is higher in “Biochem EGFR % Inhibition (P.167)” value: −14.1% for the first, 23.5% for the second.

Compared with O=C1Nc2c(Br)cc(Br)cc2C1=Cc1cc(F)ccc1F [10737/A04], O=C1Nc2c(Br)cc(Br)cc2C1=Cc1cccc(F)c1F [10737/A05] is lower in “Biochem EGFR % Inhibition (P.167)” value: 29.4% for the first, 26.4% for the second.

CCOc1ccc(C=C2C(=O)Nc3c(Br)cc(Br)cc32)cc1 [10737/A02] was tested, and the “Biochem EGFR % Inhibition (P.167)” value was 37.3%.

— patent US20020026053A1, “Novel 3-(substituted) -2- indolinones compounds and use thereof as inhibitors of protein kinase activity” (priority 1997, published 2002)
